Data published in patent US20120015925A1, “NOVEL BENZOTHIAZEPINE AND BENZOTHIEPINE COMPOUNDS” (ASAHI KASEI PHARMA CORPORATION, priority 2004, published 2012).

System: rats fed cholesterol food
Assay: Blood cholesterol lowering effect in rats fed cholesterol food
Format: in vivo, rat
Conditions: 0.3 mg/kg per administration, oral, twice per day; SD (IGS) male rats; serum 3 hours after final administration
Protocol: In the present Test Example, a blood cholesterol lowering effect on rats fed cholesterol food was evaluated according to the method described in J. Lipid Res., 1995, 36, 1098-1105.
That is, the food containing 0.4% cholesterol and 0.5% bile acid was given to SD (IGS) strain male rats at 7 to 9 weeks of age for 5 days in advance of the test date, to increase blood cholesterol levels. The rats in which the blood cholesterol level had been obviously elevated from the level before loading the cholesterol food were selected as the subjects in the test. Colestimide (brand name: Cholebine 70% granules, supplied from Mitsubishi Tokyo Pharmaceutical Inc.) which is an anion exchange resin drug was suspended in distilled water, and the test compound was dissolved or suspended in distilled water. They were orally administered forcibly twice per day everyday from the starting date (each n=8). The blood was collected from jugular vein 3 hours after the drug administration on the final day of the experiment, and the cholesterol level in serum was measured to examine the effect of the test compound. As a control, another group (n=8) was merely fed cholesterol food, to which distilled water (1 mL/kg) was administered and the same procedure was applied. The total cholesterol value and the HDL cholesterol value were measured using commercially available kits. The value obtained by subtracting the HDL cholesterol value from the total cholesterol value was regarded as an LDL+VLDL cholesterol value.

Compound | LDL + VLDL REDUCTION RATE (%) IN CHOLESTEROL FED RAT MODEL (THERAPEUTIC MODEL)
CCCCC1(CCCC)CS(=O)(=O)c2ccc(N(C)C)cc2C(c2cccc(NC(=S)Nc3ccc(C[n+]4ccc(C(C)(C)C)cc4)cc3F)c2)N1.[Br-] (stereo not shown) [EXAMPLE P366] | 31%

Target: T1, human IBAT (Homo sapiens, UniProt Q12908)
T1 sequence (Q12908 1-348): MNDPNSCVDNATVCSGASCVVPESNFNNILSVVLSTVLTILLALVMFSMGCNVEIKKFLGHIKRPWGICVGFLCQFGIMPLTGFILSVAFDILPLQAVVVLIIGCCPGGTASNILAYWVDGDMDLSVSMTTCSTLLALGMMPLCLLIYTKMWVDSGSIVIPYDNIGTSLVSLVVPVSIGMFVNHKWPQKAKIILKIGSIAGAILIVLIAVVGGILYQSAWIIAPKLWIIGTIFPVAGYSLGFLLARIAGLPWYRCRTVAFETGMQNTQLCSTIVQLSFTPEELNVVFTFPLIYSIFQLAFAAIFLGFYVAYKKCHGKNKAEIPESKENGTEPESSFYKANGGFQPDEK
Assay: In vitro assay using Cos 7 cells, transiently expressed human IBAT
Format: cell-based
Conditions: [3H]-taurocholate 8 μM uptake, 37° C., 60 minutes
Summary of the method: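 Cos 7 cells transfected with human or rat IBAT cDNA were assayed one day later in Hanks buffer with 25 mM glucose and 10 mM HEPES (pH 7.4) containing compound. [^3H]-taurocholate (8 μM final) uptake ran 60 min at 37° C. Cells were washed with 1 mM taurocholate, lysed in NaOH, and counted by liquid scintillation.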

Compound | IC50
CCCCC1(CCCC)CS(=O)(=O)c2ccc(N(C)C)cc2C(c2cccc(NC(=S)Nc3ccc(C[N+]45CCC(CC4)CC5)cc3)c2)N1.[Br-] (racemic) [EXAMPLE 3695] | 37 nM
CCCCC1(CCCC)CS(=O)(=O)c2ccc(N(C)C)cc2C(c2cccc(NC(=S)Nc3ccc(C[N+]4(Cc5ccccc5)CCCC(CO)C4)cc3)c2)N1.[Br-] (stereo not shown) [EXAMPLE 3607] | 41 nM
CCCCC1(CCCC)CS(=O)(=O)c2ccc(N(C)C)cc2C(c2cccc(NC(=S)Nc3ccc(C[N+]4(Cc5ccccc5)CCC(CCO)CC4)cc3)c2)N1.[Br-] (stereo not shown) [EXAMPLE 3608] | 59 nM
CCCCC1(CCCC)CS(=O)(=O)c2ccc(N(C)C)cc2C(c2cccc(NC(=S)Nc3ccc(C[n+]4ccc(C(C)(C)C)cc4)cc3F)c2)N1.[Br-] (stereo not shown) [EXAMPLE P366] | 25 nM

System: Caco-2 cell
Assay: Gastrointestinal toxicity: cytotoxicity against Caco-2 cell (LDH activity)
Format: cell-based, human
Conditions: 3 μM, 2 hours; LDH activity in medium relative to cell lysis agent = 100%
Protocol: That is, 10,000 cells/well of Caco-2 cells (purchased from ATCC) were seeded in a 96-well plate [MEM-E medium, 10% FBS (Fetal Bovine Serum), 1% NEAA (Non Essential Amino Acid) solution, supplied from Gibco]. After culturing for 48 hours, the test compound diluted with the medium was added to each well. After 2 hours, 50 μL of the medium was collected, and an LDH activity in the medium was measured using an LDH activity measurement kit (CytoTox96 Non-Radioactive Cytotoxicity Assay, supplied from Promega). Defining the LDH activity of the Caco-2 cells treated with a cell lysis agent as being 100%, the relative activity was calculated as a index of the cytotoxicity.

Compound | CELL TOXICITY AGAINST Caco2 3 μM
CCCCC1(CCCC)CS(=O)(=O)c2ccc(N(C)C)cc2C(c2cccc(NC(=S)Nc3ccc(C[N+]45CCC(CC4)CC5)cc3)c2)N1.[Br-] (racemic) [EXAMPLE 3695] | <1%
CCCCC1(CCCC)CS(=O)(=O)c2ccc(N(C)C)cc2C(c2cccc(NC(=S)Nc3ccc(C[N+]4(Cc5ccccc5)CCCC(CO)C4)cc3)c2)N1.[Br-] (stereo not shown) [EXAMPLE 3607] | <1%
CCCCC1(CCCC)CS(=O)(=O)c2ccc(N(C)C)cc2C(c2cccc(NC(=S)Nc3ccc(C[N+]4(Cc5ccccc5)CCC(CCO)CC4)cc3)c2)N1.[Br-] (stereo not shown) [EXAMPLE 3608] | <1%

Same assay, conditions: 10 μM, 2 hours; LDH activity in medium relative to cell lysis agent = 100%

Compound | CELL TOXICITY AGAINST Caco2 10 μM
CCCCC1(CCCC)CS(=O)(=O)c2ccc(N(C)C)cc2C(c2cccc(NC(=S)Nc3ccc(C[N+]45CCC(CC4)CC5)cc3)c2)N1.[Br-] (racemic) [EXAMPLE 3695] | <1%
CCCCC1(CCCC)CS(=O)(=O)c2ccc(N(C)C)cc2C(c2cccc(NC(=S)Nc3ccc(C[N+]4(Cc5ccccc5)CCCC(CO)C4)cc3)c2)N1.[Br-] (stereo not shown) [EXAMPLE 3607] | <1%
CCCCC1(CCCC)CS(=O)(=O)c2ccc(N(C)C)cc2C(c2cccc(NC(=S)Nc3ccc(C[N+]4(Cc5ccccc5)CCC(CCO)CC4)cc3)c2)N1.[Br-] (stereo not shown) [EXAMPLE 3608] | <1%

Same assay, conditions: 30 μM, 2 hours; LDH activity in medium relative to cell lysis agent = 100%

Compound | CELL TOXICITY AGAINST Caco2 30 μM
CCCCC1(CCCC)CS(=O)(=O)c2ccc(N(C)C)cc2C(c2cccc(NC(=S)Nc3ccc(C[N+]45CCC(CC4)CC5)cc3)c2)N1.[Br-] (racemic) [EXAMPLE 3695] | <1%
CCCCC1(CCCC)CS(=O)(=O)c2ccc(N(C)C)cc2C(c2cccc(NC(=S)Nc3ccc(C[N+]4(Cc5ccccc5)CCCC(CO)C4)cc3)c2)N1.[Br-] (stereo not shown) [EXAMPLE 3607] | <1%
CCCCC1(CCCC)CS(=O)(=O)c2ccc(N(C)C)cc2C(c2cccc(NC(=S)Nc3ccc(C[N+]4(Cc5ccccc5)CCC(CCO)CC4)cc3)c2)N1.[Br-] (stereo not shown) [EXAMPLE 3608] | <1%

System: rats dosed cholic acid
Assay: Lowering effect on bile acid concentrations in portal vein blood in rats dosed cholic acid
Format: in vivo, rat
Conditions: 0.1 mg/kg oral with cholic acid 200 mg/kg; portal vein serum total bile acid 2 hours after; control = 100%; surfactant HCO-60 (##)
Protocol: In the present Test Example, a lowering effect on bile acid concentrations in portal vein blood in rats dosed cholic acid was evaluated according to the method described in Jpn. Pharmacol. Ther., Vol. 24 Supplement, 1996, 103(S-577)-110(S-584).
That is, SD (IGS) strain male rats at 7 to 9 weeks of age were fasted one day before the administration date. […] The blood was collected from the portal vein 2 hours after the forced oral administration, and a total bile acid value in serum was measured to examine the effect of the test compound (n=6). As a control, another group (n=6) merely received cholic acid (200 mg/kg), to which the same procedure was applied. The cholic acid value was measured using the commercially available kit (brand name: Total Bile Acid-Test Wako, supplied form Wako Pure Chemical Industries). Defining the value in the control group to which no test compound had been administered as being 100%, a reduction rate (%) of the bile acid value when a certain amount of the test compound had been administered was calculated.

Compound | BILE ACID REDUCTION RATE (%) IN RAT MODEL WITH CHOLIC ACID LOADING
CCCCC1(CCCC)CS(=O)(=O)c2ccc(N(C)C)cc2C(c2cccc(NC(=S)Nc3ccc(C[n+]4ccc(C(C)(C)C)cc4)cc3F)c2)N1.[Br-] (stereo not shown) [EXAMPLE P366] | 45%

Same assay, conditions: 0.1 mg/kg oral; surfactant HCO-60 0.1%; cholic acid 200 mg/kg; portal vein blood 2 hours after administration

Compound | BILE ACID REDUCTION RATE (%) IN RAT MODEL WITH CHOLIC ACID LOADING
CCCCC1(CCCC)CS(=O)(=O)c2ccc(N(C)C)cc2C(c2cccc(NC(=S)Nc3ccc(C[N+]45CCC(CC4)CC5)cc3)c2)N1.[Br-] (racemic) [EXAMPLE 3695] | 23%
CCCCC1(CCCC)CS(=O)(=O)c2ccc(N(C)C)cc2C(c2cccc(NC(=S)Nc3ccc(C[N+]4(Cc5ccccc5)CCCC(CO)C4)cc3)c2)N1.[Br-] (stereo not shown) [EXAMPLE 3607] | 36%
CCCCC1(CCCC)CS(=O)(=O)c2ccc(N(C)C)cc2C(c2cccc(NC(=S)Nc3ccc(C[N+]4(Cc5ccccc5)CCC(CCO)CC4)cc3)c2)N1.[Br-] (stereo not shown) [EXAMPLE 3608] | 43%

Target: T2, rat IBAT (Rattus norvegicus, UniProt Q62633)
T2 sequence (Q62633 1-348): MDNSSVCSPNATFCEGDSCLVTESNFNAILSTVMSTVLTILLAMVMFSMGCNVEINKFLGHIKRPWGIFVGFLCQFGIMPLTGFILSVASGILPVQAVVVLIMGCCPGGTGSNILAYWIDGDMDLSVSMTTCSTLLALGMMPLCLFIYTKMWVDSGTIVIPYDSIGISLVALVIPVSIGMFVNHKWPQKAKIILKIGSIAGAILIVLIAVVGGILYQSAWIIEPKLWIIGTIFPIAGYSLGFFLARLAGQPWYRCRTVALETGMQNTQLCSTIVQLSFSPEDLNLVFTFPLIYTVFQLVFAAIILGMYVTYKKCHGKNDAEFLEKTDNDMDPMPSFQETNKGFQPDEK
Assay: In vitro assay using Cos 7 cells, transiently expressed rat IBAT
Format: cell-based
Conditions: [3H]-taurocholate 8 μM uptake, 37° C., 60 minutes
Protocol: In the present Test Example, an in vitro assay of compounds using Cos 7 cells as to inhibitory activity on transiently expressed human IBAT or rat IBAT transporter was performed according to the method described in Am. J. Physiol., 274, G157-169.
That is, […] cells/well of Cos 7 cells were seeded in a 24-well plate, and after one day, the cells were transfected with 0.3 μg/well of cDNA of human IBAT or rat IBAT using FuGENE6 (supplied from Roche). After culturing for one day after the transfection, the cells were washed once with the assay buffer, i.e., Hanks buffer containing 25 mM glucose and 10 mM HEPES (pH 7.4). The assay buffer was then replaced with the assay buffer containing the test compound. [^3H]-Taurocholate at a final concentration of 8 μM was added thereto and incubated at 37° C. for 60 minutes so that [^3H]-taurocholate was taken into Cos 7 cells by the action of human IBAT or rat IBAT. The cells were washed twice with the assay buffer containing 1 mM taurocholate, and subsequently lysed with 0.2 M NaOH to stop the reaction. The cell lysate was added to 4 mL of liquid scintillation cocktail, which was then thoroughly vortexed. Then the radioactivity was measured using the liquid scintillation counter.

Compound | IC50
CCCCC1(CCCC)CS(=O)(=O)c2ccc(N(C)C)cc2C(c2cccc(NC(=S)Nc3ccc(C[N+]45CCC(CC4)CC5)cc3)c2)N1.[Br-] (racemic) [EXAMPLE 3695] | 5 nM
